Several values for one entry are separate records, joined by “and”; a condition that tells them apart may be missing. Identical values can stand only once.
What was measured:
[1] = refractive index (Na D-line) (dimensionless); xn = mol fraction of the nth substance listed; conditions: 100.8 kPa, Liquid, Standard Abbe refractometry
[2] = xn = mol fraction of the nth substance listed; conditions: Liquid; for viscosity: Capillary tube (Ostwald / Ubbelohde) method
[3] = Liquid; for viscosity: Capillary tube (Ostwald / Ubbelohde) method
[4] = refractive index (Na D-line) (dimensionless); conditions: 101.33 kPa, Liquid, Standard Abbe refractometry

CC(C)CC(C)(C)C [2,2,4-trimethylpentane] + CC(C)OC(C)C
[1], x2 = 0
Conditions	refractive index
288.15 K	1.39404
298.15 K	1.389
308.15 K	1.38395

[2], 100.8 kPa, x2 = 0
Conditions	mass density [kg/m3]	viscosity [mPa·s]
288.15 K	695.95	0.537
298.15 K	687.74	0.48
308.15 K	679.43	0.432

CCO [ethanol]
[3]
Conditions	mass density, 288.15 K [kg/m3]	mass density, 298.15 K [kg/m3]	mass density, 308.15 K [kg/m3]	viscosity, 288.15 K [mPa·s]	viscosity, 298.15 K [mPa·s]	viscosity, 308.15 K [mPa·s]
100.5 kPa	793.74	785.17	776.49	1.309	1.084	0.905
100.8 kPa	793.74	785.17	776.49	1.309	1.084	0.905

[4]
Conditions	refractive index
288.15 K	1.36342
298.15 K	1.35924
308.15 K	1.35502

CC(C)OC(C)C [diisopropyl ether]
[3]
Conditions	mass density, 288.15 K [kg/m3]	mass density, 298.15 K [kg/m3]	mass density, 308.15 K [kg/m3]	viscosity, 288.15 K [mPa·s]	viscosity, 298.15 K [mPa·s]	viscosity, 308.15 K [mPa·s]
100.5 kPa	729.09	718.7	708.12	0.348	0.313	0.283
100.8 kPa	729.09	718.7	708.12	0.348	0.313	0.283

[4]
Conditions	refractive index
288.15 K	1.37093
298.15 K	1.36524
308.15 K	1.35944

CCO [ethanol] + CC(C)OC(C)C
[1], x2 = 0
Conditions	refractive index
288.15 K	1.36342
298.15 K	1.35924
308.15 K	1.35502

[2], 100.5 kPa, x2 = 0
Conditions	mass density [kg/m3]	viscosity [mPa·s]
288.15 K	793.74	1.309
298.15 K	785.17	1.084
308.15 K	776.49	0.905

CC(C)CC(C)(C)C [2,2,4-trimethylpentane]
[3], 100.8 kPa
Conditions	mass density	viscosity [mPa·s]
288.15 K	695.95 kg/m3	0.537
298.15 K	687.74 kg/m3	0.48
308.15 K	679.43 kg/m3 and 679.41 kg/m3	0.432

[4]
Conditions	refractive index
288.15 K	1.39404
298.15 K	1.389
308.15 K	1.38395

CCO [ethanol] + CC(C)CC(C)(C)C
[1], x1 = 1
Conditions	refractive index
288.15 K	1.36342
298.15 K	1.35924
308.15 K	1.35502

[2], 100.8 kPa, x1 = 1
Conditions	mass density [kg/m3]	viscosity [mPa·s]
288.15 K	793.74	1.309
298.15 K	785.17	1.084
308.15 K	776.49	0.905

Reference: the NIST ThermoML archive (doi:10.1021/je050367p)
